Test results as given in patent US20250032580A1, “USE OF ADNF POLYPEPTIDES IN THERAPY” (RAMOT AT TEL-AVIV UNIVERSITY LTD., priority 2021, published 2025).
Entries after “also recorded” stand apart in the source; their conditions may differ.

Experiments:
BTBR mouse = assay: Social recognition test; format: in vivo; conditions: BTBR idiopathic autism mouse, FIG. 14
N1E-115 cells = assay: Polymerized vs. soluble tubulin assay; format: cell-based, mouse; conditions: zinc 400 μM, 4 h, peptide 10^−12 M
Procedure: Polymerized vs. soluble tubulin assay—To quantify tubulin polymerization and Tau-MT association, a simple assay was performed as previously described. The cells grown to confluence in six-well plates were washed with MT buffer (80 mM PIPES pH 6.8, 1 mM MgCl^2, 2 mM EGTA, 5% Glycerol) and lysed at room temperature for 5 min through centrifugation (300 g), with 150 μl of MT buffer with 0.5% Triton X-100 to extract soluble (cytosolic) tubulin (S). The pelleted cells were rinsed once again with an equal volume of modified RIPA lysis buffer (50 mM Tris-HCL pH 7.4, 150 mM NaCl, 2 mM EGTA, 1% Triton X-100, 0.1% SDS, 0.1% sodium Deoxycholate) to collect the polymerized (cytoskeletal) tubulin (P). The cytosolic and cytoskeletal fractions were each mixed with sample buffer and heated at 95° C. for 5 min. An equal volume of each fraction was analyzed by immunoblotting with Tau, tubulin and actin antibodies, and the results following ECL development were quantified by densitometry (GelQuant.NET software provided by biochemlabsolutions(dot)com).
It is known that in the presence of extracellular zinc NAP protects MT against degradation by promoting Tau binding to the MT shaft. Polymerized vs. soluble tubulin assay was effected to compare protective activities of NAP and SKIP against MT degradation and Tau-MT dissociation (FIGS. 11F-G). After treatments with zinc (400 μM, 4 h) with and without NAP or SKIP (10^−12 M, 4 h) the cellular-tubulin pool was separated into polymerized and soluble tubulin fractions. The amount of Tau, tubulin, and actin was identified by immunoblotting (FIG. 11F), followed by densitometric quantification (FIG. 11G).

[1] = test system: adult compromised patients; conditions: cited from earlier work
Adnp+/− mouse = test system: Adnp+/− mouse; design: key: corrections by NAP treatment (+); conditions: second symbol of cell, cited from earlier work
SHANK3 mice [2] = assay: Grooming (repetitive behavior); format: in vivo, mouse; conditions: sham-treated vs NAP-treated SHANK3 mice; data not shown
Procedure: Repetitive behavior, a key autistic feature, was also evaluated by measuring grooming frequency and duration.

Tyr mice [3] = assay: AT8 (hyperphosphorylated Tau) immunohistochemistry; format: in vivo, mouse; design: key to NAP efficacy: tauopathy, hyperphosphorylated Tau deposits: corrections by NAP treatment (+)
Procedure: AT8 Immunohistochemistry—experiment was performed as previously described (100). Mice were treated for 6 weeks with daily intranasal DD/NAP and were euthanized at 10.21±0.05 weeks of age.

Tyr mice [4] = assay: Ultrasonic vocalizations (USV) and syntax, DeepSqueak; format: in vivo, mouse; design: key to NAP efficacy: speech impediments: corrections by NAP treatment (+)
Procedure: USV: On P8, each pup was separated from the dam and placed in an empty cage for 6 minutes, in a quiet room and was recorded using the M500-384 USB Ultrasound Microphone (Petterson, Sweden). Pups were distinguished from one another using the tattoos listed above. After 6 minutes pups were reunited with its dam. Data were analyzed using DeepSqueak. Data were loaded onto DeepSqueak, frequencies between 40-70 kHz were analyzed using the mouse call network V2. Calls were denoised using post hoc denoising network. For syntax analysis, Syntax was classified using Wright K means network. Syntax transition probability charts were generated using DeepSqueak and Matlab. Further USV experiments were performed on P8 pups as previously described (12) with slight modifications.

SHANK3 mice [5] = assay: Eubacteriaceae (EubV3) microbiota; format: in vivo, mouse; conditions: data not shown
[6] = test system: SHANK3 mouse model (InsG3680 mutation); assay: Open field behavior; format: in vivo; conditions: intranasal, once daily, five days a week for a month
Procedure: To this end, mice with the ASD-linked InsG3680 mutation were used. Two behavioral assessments were performed on make mice: • 1) Open field behavior attesting to anxiety and depression (Open field behavioral assessment technology was previously described, e.g.); and • 2) Social recognition behavior, related to autistic traits (the social recognition test was previously described, e.g..
This surprising finding is of importance as there is a psychiatric illness and regression in individuals with Phelan-McDermid syndrome.

[7] = male Tyr mice, 6 weeks daily intranasal NAP

CC[C@H](C)[C@H](NC(=O)[C@H](CO)NC(=O)[C@@H](NC(=O)[C@@H]1CCCN1C(=O)[C@H](C)NC(=O)[C@@H](N)CC(N)=O)C(C)C)C(=O)N1CCC[C@H]1C(=O)N[C@@H](CCC(N)=O)C(=O)O [NAP, NAPVSIPQ]
Effects on social recognition (preference of the mouse rather than the cup) (BTBR mouse): also observed
Protection against Tau dissociation from MTs (N1E-115 cells): only NAP exhibited protection
Protection of polymerized tubulin against zinc-induced decay (N1E-115 cells): protected against zinc-induced decay
Clinical efficacy ([1]; adult patients): enhancement of cognitive function and functional activities of daily living
Safety and tolerance ([1]; hundreds of adult compromised patients): proven safety and tolerance
NAP efficacy: cognitive impairments, behavioral deficits (Adnp+/− mouse; Adnp+/− mouse (8)): +(odor)/+(8)
NAP efficacy: axonal transport (Adnp+/− mouse; Adnp+/− mouse): +/+
NAP efficacy: gene expression patterns (Adnp+/− mouse; Adnp+/− mouse): +/+
NAP efficacy: global developmental delays (Adnp+/− mouse; Adnp+/− mouse): +/+
NAP efficacy: microbiota (Adnp+/− mouse; Adnp+/− mouse): +/+
NAP efficacy: motor impediments (Adnp+/− mouse; Adnp+/− mouse): +/(gait)+
NAP efficacy: short stature (Adnp+/− mouse; Adnp+/− mouse): +
NAP efficacy: speech impediments (Adnp+/− mouse; Adnp+/− mouse): +/+ (syntax)
NAP efficacy: synaptic structural alterations (Adnp+/− mouse; Adnp+/− mouse): +/+
NAP efficacy: tauopathy, hyperphosphorylated Tau deposits (Adnp+/− mouse; Adnp+/− mouse): +/+
Grooming frequency (SHANK3 mice [2]): higher grooming frequency than did NAP-treated SHANK3 mice
Combined AT8- and AT180-positive cells (Tyr mice [3]; Tyr mice, both sexes, data not shown): correction by NAP in both sexes
NAP efficacy: tauopathy, hyperphosphorylated Tau deposits (Tyr mice [3]; Tyr mouse, first symbol of cell): +/+
AT8 staining (Tyr mice [3]; WT males, data not shown): did not display a NAP effect
Decrease of AT8 positive cells in the hippocampus (Tyr mice [3]; [7]): ~2.57 fold
Reversal of AT8 staining in the visual cortex (Tyr mice [3]; [7]): ~2 fold
Number of syllables vocalized (Tyr mice [4]; NAP-treated Tyr males, 8 for WT and Tyr): 10
Syntax complexity (Tyr mice [4]; P8 Tyr pups, both sexes): powerful corrective effect on both sexes; also recorded: significant improvement with NAP treatment
Total USVs produced (Tyr mice [4]; P8 Tyr pups, females and males): no NAP effects
NAP efficacy: speech impediments (Tyr mice [4]; Tyr mouse (syntax), first symbol of cell): +/+ (syntax)
Syntax (Tyr mice [4]; WT pups, data not shown): minor varied impact
EubV3 trend to change as a consequence of the SHANK3 mutation (SHANK3 mice [5]): this trend was not observed in the treated mice
Cumulative duration in the center (open field) [6]: significantly increased
